In patent publication US9365522B2, “Pyrazole amide derivative” (AMGEN INC., priority 2015, dated 2016):

Target: T1, ligand binding domain of human ROR gamma (Homo sapiens, UniProt P51449)
T1 construct: NM_001001523; expressed in transfected cells; host or cells: HEK293T
T1 sequence (P51449 247-497 isoform P51449-2): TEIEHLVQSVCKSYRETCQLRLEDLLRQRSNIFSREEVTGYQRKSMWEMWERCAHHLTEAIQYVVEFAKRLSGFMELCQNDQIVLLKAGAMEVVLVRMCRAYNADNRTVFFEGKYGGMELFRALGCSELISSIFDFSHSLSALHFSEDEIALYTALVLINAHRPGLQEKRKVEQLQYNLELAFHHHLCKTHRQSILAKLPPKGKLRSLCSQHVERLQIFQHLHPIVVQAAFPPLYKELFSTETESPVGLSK
Test: ROR gamma reporter gene assay (GAL4-RORγ LBD luciferase, Dual-Glo)
Format: cell-based
Settings: HEK293T cells transfected with pM-ROR gamma, 8 concentrations 3.5 nM to 10.5 μM, 24 h incubation; read-out: result (pIC50, inhibition of RORγ transcriptional activity) (converted)
How it was run: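 Inhibition of RORγ-driven transcription was measured in HEK293T cells expressing a GAL4 fusion of the human RORγ LBD (aa 247-497), with renilla luciferase as internal control. Cells in 10% charcoal-stripped serum received compound (3.5 nM–10.5 μM) for 24 h.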

| SMILES | IC50 [pM] |
| --- | --- |
| O=C(CN(CC1(F)CCCC1)C(=O)c1cnn(C23CCC(C(=O)O)(CC2)CC3)c1C(F)(F)F)c1c(Cl)cncc1Cl [Example 299, 4-(4-((2-(3,5-dichloropyridin-4-yl)-2-oxoethyl)-((1-fluorocyclopentyl)methyl)carbamoyl)-5-(trifluoromethyl)pyrazol-1-yl)bicyclo[2.2.2]octane-1-carboxylic acid] | 20900 |
| Cc1cc(Cl)c(C(=O)CN(CC2(F)CCCC2)C(=O)c2cnn(C34CCC(C(=O)O)(CC3)CC4)c2C(F)(F)F)c(Cl)c1 [Example 300, 4-(4-((2-(2,6-dichloro-4-methyIphenyl)-2-oxoethyl)-((1-fluorocyclopentyl)methyl)carbamoyl)-5-(trifluoromethyl)pyrazol-1-yl)bicyclo[2.2.2]octane-1-carboxylic acid] | 24000 |
| CC1(C)CCC(N(CC(=O)c2c(Cl)cc(F)cc2Cl)C(=O)c2cnn([C@H]3CC[C@@](C)(C(=O)O)CC3)c2C(F)(F)F)CC1 [Example 301, cis-4-(4-((2-(2,6-dichloro-4-fluorophenyl)-2-oxoethyl)-(4,4-dimethylcyclohexyl)carbamoyl)-5-(trifluoromethyl)pyrazol-1-yl)-1-methylcyclohexane-1-carboxylic acid] | 186000 |
| CCC(C)(C)CN(CC(=O)c1c(Cl)cc(F)cc1Cl)C(=O)c1cnn([C@H]2CC[C@](C)(C(=O)O)CC2)c1C(F)(F)F [Example 302, trans-4-(4-((2-(2,6-dichloro-4-fluorophenyl)-2-oxoethyl)-(2,2-dimethylbutyl)carbamoyl)-5-(trifluoromethyl)pyrazol-1-yl)-1-methylcyclohexane-1-carboxylic acid] | 14800 |
| CN1C2CCC1CC(N(CC(=O)c1c(Cl)cc(F)cc1Cl)C(=O)c1cnn([C@H]3CC[C@](C)(C(=O)O)CC3)c1C(F)(F)F)C2 (stereo partly drawn) [Example 303, trans-4-(4-((2-(2,6-dichloro-4-fluorophenyl)-2-oxoethyl)-(8-methyl-8-azabicyclo[3.2.1]octan-3-yl)carbamoyl)-5-(trifluoromethyl)pyrazol-1-yl)-1-methylcyclohexane-1-carboxylic acid] | > 3.47e+06 |
| C[C@]1(C(=O)O)CC[C@H](n2ncc(C(=O)N(CC(=O)c3c(Cl)cc(F)cc3Cl)C3CC4CCC(C3)N4)c2C(F)(F)F)CC1 (stereo partly drawn) [Example 304, trans-4-(4-(8-azabicyclo [3.2.1]octan-3-yl-(2-[2,6-dichloro-4-fluorophenyl)-2-oxoethyl)carbamoyl)-5-(trifluoromethyl)pyrazol-1-yl)-1-methylcyclohexane-1-carboxylic acid] | > 1.05e+07 |
| CC(C)N1C2CCC1CC(N(CC(=O)c1c(Cl)cc(F)cc1Cl)C(=O)c1cnn([C@H]3CC[C@](C)(C(=O)O)CC3)c1C(F)(F)F)C2 (stereo partly drawn) [Example 305, trans-4-(4-((2-(2,6-dichloro-4-fluorophenyl)-2-oxoethyl)-(8-propan-2-yl-8-azabicyclo[3.2.1]octan-3-yl)carbamoyl)-5-(trifluoromethyl)pyrazol-1-yl)-1-methylcyclohexane-1-carboxylic acid] | > 1.05e+07 |
| CCC(C)(C)CN(CC(=O)c1c(Cl)cc(Cl)cc1Cl)C(=O)c1cnn([C@H]2CC[C@](C)(C(=O)O)CC2)c1C(F)(F)F [Example 306, trans-4-(4-(2,2-dimethylbutyl-(2-oxo-2-(2,4,6-trichlorophenyl)ethyl)carbamoyl)-5-(trifluoromethyl)pyrazol-1-yl)-1-methylcyclohexane-1-carboxylic acid] | 8320 |
| Cc1cc(Cl)c(C(=O)CN(Cc2cc(F)cc(F)c2)C(=O)c2cnn([C@H]3CC[C@H](C(=O)O)CC3)c2C(F)(F)F)c(C#N)c1 [Example 307, trans-4-(4-((2-(2-chloro-6-cyano-4-methylphenyl)-2-oxoethyl)-((3,5-difluorophenyl)methyl)carbamoyl)-5-(trifluoromethyl)pyrazol-1-yl)cyclohexane-1-carboxylic acid] | 8.32e+06 |
| CCC(C)(C)CN(CC(=O)c1c(Cl)cc(Cl)cc1Cl)C(=O)c1cnn(C23CCC(C(=O)O)(CC2)CC3)c1C(F)(F)F [Example 308, 4-(4-(2,2-dimethylbutyl-(2-oxo-2-(2,4,6-trichlorophenyl)ethyl)carbamoyl)-5-(trifluoromethyl)pyrazol-1-yl)bicyclo[2.2.2]octane-1-carboxylic acid] | 16600 |
| CCC(C)(C)CN(CC(=O)c1c(Cl)cc(F)cc1Cl)C(=O)c1cnn(C23CCC(C(=O)O)(CC2)CC3)c1C(F)(F)F [Example 309, 4-(4-((2-(2,6-dichloro-4-fluorophenyl)-2-oxoethyl)-(2,2 dimethylbutyl)carbarnoyl)-5-(trifluoromethyl)pyrazol-1-yl)bicyclo [2.2.2] octane-1-carboxylic acid] | 11200 |
| CC(C)(C)CN(CC(=O)c1c(Cl)cncc1Cl)C(=O)c1cnn([C@H]2CC[C@](C)(C(=O)O)CC2)c1C#N [Example 310, trans-4-(5-cyano-4-((2-(3,5-dichloropyridin-4-yl)-2-oxoethyl)-(2,2-dimethylpropyl)carbamoyl)pyrazol-1-yl)-1-methylcyclohexane-1-carboxylic acid] | > 1.05e+07 |
| CN1C(C)(C)CC(N(CC(=O)c2c(Cl)cncc2Cl)C(=O)c2cnn([C@H]3CC[C@](C)(C(=O)O)CC3)c2C(F)(F)F)CC1(C)C [Example 311, trans-4-(4-((2-(3,5-dichloropyridin-4-yl)-2-oxoethyl)-(1,2,2,6,6-pentamethylpiperidin-4-yl)carbamoyl)-5-(trifluoromethyl)pyrazol-1-yl)-1-methylcyclohexane-1-carboxylic acid] | > 1.05e+07 |
| CC(C)CC(C)N(CC(=O)c1c(Cl)cncc1Cl)C(=O)c1cnn([C@H]2CC[C@](C)(C(=O)O)CC2)c1C(F)(F)F (stereo partly drawn) [Example 312, trans-4-(4-((2-(3,5-dichloropyridin-4-yl)-2-oxoethyl)-(4-methylpentan-2-yl)carbamoyl)-5-(trifluoromethyl)pyrazol-1-yl)-1-methylcyclohexane-1-carboxylic acid] | 52500 |
| COCC(C)N(CC(=O)c1c(Cl)cncc1Cl)C(=O)c1cnn([C@H]2CC[C@](C)(C(=O)O)CC2)c1C(F)(F)F (stereo partly drawn) [Example 313, trans-4-(4-((2-(3,5-dichloropyridin-4-yl)-2-oxoethyl)-(1-methoxypropan-2-yl)carbamoyl)-5-(trifluoromethyl)pyrazol-1-yl)-1-methylcyclohexane-1-carboxylic acid] | 1.55e+06 |
| CC(C)=CCN(CC(=O)c1c(Cl)cncc1Cl)C(=O)c1cnn([C@H]2CC[C@](C)(C(=O)O)CC2)c1C(F)(F)F [Example 314, trans-4-(4-((2-(3,5-dichloropyridin-4-yl)-2-oxoethyl)-(3-methylbut-2-enyl)carbamoyl)-5-(trifluoromethyl)pyrazol-1-yl)-1-methylcyclohexane-1-carboxylic acid] | 41700 |
| COc1cncc(Cl)c1C(=O)CN(CC(C)(C)C)C(=O)c1cnn([C@H]2CC[C@](C)(C(=O)O)CC2)c1C(F)(F)F [Example 315, trans-4-(4-((2-(3-chloro-5-methoxypyridin-4-yl)-2-oxoethyl)-(2,2-dimethylpropyl)carbamoyl)-5-(trifluoromethyl)pyrazol-1-yl)-1-methylcyclohexane-1-carboxylic acid] | 55000 |
| CC1(CN(CC(=O)c2c(Cl)cncc2Cl)C(=O)c2cnn(C34CCC(C(=O)O)(CC3)CC4)c2C(F)(F)F)CC1 [Example 316, 4-(4-((2-(3,5-dichioropyridin-4-yl)-2-oxoethyl)-((1-methylcyclopropyl)methyl)carbamoyl)-5-(trifluoromethyl)pyrazol-1-yl)bicyclo[2.2.2]octane-1-carboxylic acid] | 9120 |
| CC(C)(C)CN(CC(=O)c1c(Cl)cccc1Cl)C(=O)c1cnn(C23CCC(C(=O)O)(CC2)CC3)c1C(F)(F)F [Example 317, 4-(4-((2-(2,6-dichlorophenyl)-2-oxoethyl)-(2,2-dimethylpropyl)carbamoyl)-5-(trifluoromethyl)pyrazol-1-yl)bicyclo[2.2.2]octane-1-carboxylic acid] | 10000 |
| CC(C)(C)OCCN(CC(=O)c1c(Cl)cncc1Cl)C(=O)c1cnn([C@H]2CC[C@](C)(C(=O)O)CC2)c1C(F)(F)F [Example 318, trans-4-(4-((2-(3,5-dichloropyridin-4-yl)-2-oxoethyl)-(2-((2-methylpropan-2-yl)oxy)ethyl)carbamoyl)-5-(trifluoromethyl)pyrazol-1-yl)-1-methylcyclohexane-1-carboxylic acid] | 20000 |
| CC(C)CC1(N(CC(=O)c2c(Cl)cncc2Cl)C(=O)c2cnn([C@H]3CC[C@](C)(C(=O)O)CC3)c2C(F)(F)F)CC1 [Example 319, trans-4-(4-((2-(3,5-dichloropyridin-4-yl)-2-oxoethyl)-(1-(2-methylpropyl)cyclopropyl)carbamoyl)-5-(trifluoromethyl)pyrazol-1-yl)-1-methylcyclohexane-1-carboxylic acid] | 141000 |
| CC1(C)[C@@H]2C[C@H](N(CC(=O)c3c(Cl)cccc3Cl)C(=O)c3cnn(C45CCC(C(=O)O)(CC4)CC5)c3C(F)(F)F)C[C@@H]21 [Example 320, 4-(4-((2-(2,6-dichlorophenyl)-2-oxoethyl)((1R,3r,5S)-6,6-dimethylbicyclo[3.1.0]hexan-3-yl)carbamoyl)-5-(trifluoromethyl)-1H-pyrazol-1-yl)bicyclo [2.2.2] octane-1-carboxylic acid] | 9770 |
